SMILES strings stand for the structures. Like-named read-outs stand apart in the source and are kept apart here. Bounds are passed on as bounds.

Consider 16 molecules from US10183944B2 (Asana Biosciences, LLC, priority 2011, dated 2019).

The target in test [1] is Syk (356-635 amino acids) catalytic domain (Homo sapiens (Human), UniProt P43405). Put plainly: Inhibition of enzymatic Syk kinase activity (radiometric). The format is biochemical. Put shortly:
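Radiometric filter-binding format: 32P transfer from γ-32P-ATP onto pG4T, scintillation-counted after acid washes of P81 paper. Syk kinase domain (356-635), 0.035–7.5 ng per reaction, was exposed to compound for 30 minutes at room temperature before a 10-minute, 30° C. reaction with ATP (100 μM stock). Inhibition derived from counts with versus without compound.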

In another test the target is JAK2 (Homo sapiens (Human), UniProt O60674). Put plainly: Inhibition of enzymatic JAK2 kinase activity (TR-FRET). In kind it is biochemical. Put shortly:
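TR-FRET read-out (Eu antibody donor, Ulight poly Glu-Tyr acceptor, 665/615 nm ratio) after a 60 min RT kinase reaction with ATP, begun following 30 min compound–enzyme preincubation. Stopped by EDTA; inhibition expressed as 100 minus % activity of positive control.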
Background: TR-FRET usually uses a lanthanide donor and a delayed reading to cut background.

The subject of the next test is RBL2H3 cells. The experiment in a line: Degranulation assay: β-hexosaminidase release during immune complex mediated degranulation. The format is cell-based, rat. Put shortly: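 Fluorometric β-NAG read-out (Ex 355, Em 460 nm; 30 min, RT) of supernatant after DNP-BSA stimulation (45–60 min) of anti-DNP IgE-sensitized RBL2H3 cells. Compounds (0.5% DMSO) added 15 min before antigen; degranulation expressed as % β-hexosaminidase release or inhibition.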

Setting [2] is: Rattus norvegicus, RBL-2H3, 1 μM, Assay Protocol B (96 well format), read-out: Degranulation % inhibition at 1 μM.
Setting [3] is: Rattus norvegicus, RBL-2H3, Assay Protocol B (96 well format), read-out: Degranulation EC50.

JAK2, sequence (O60674 808-1132): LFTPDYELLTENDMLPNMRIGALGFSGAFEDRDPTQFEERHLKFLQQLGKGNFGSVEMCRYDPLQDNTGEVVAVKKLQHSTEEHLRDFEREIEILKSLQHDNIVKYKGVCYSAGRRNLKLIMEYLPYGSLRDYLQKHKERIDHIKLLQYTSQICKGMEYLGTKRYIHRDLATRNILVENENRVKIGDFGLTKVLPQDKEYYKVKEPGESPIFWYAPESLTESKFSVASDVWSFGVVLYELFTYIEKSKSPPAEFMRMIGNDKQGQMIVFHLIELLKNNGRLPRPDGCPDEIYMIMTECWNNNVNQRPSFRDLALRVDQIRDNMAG

Usually IC50 stands for the midpoint of a concentration-inhibition curve. The term inhibition denotes the change of the read-out against control, counted positive when it falls. As a reminder, the EC50 is the concentration at which the effect is half-maximal. Take `N#CCC1CCN(c2nc(Nc3ccc(CCN4CCN(CCO)CC4)cc3)c3c(=O)[nH]ncc3n2)CC1` [Example 212, 2-(1-(4-((4-(2-(4-(2-hydroxyethyl)piperazin-1-yl)ethyl)phenyl)amino)-5-oxo-5,6-dihydropyrimido[4,5-d]pyridazin-2-yl)piperidin-4-yl)acetonitrile]: the IC50 (in test [1] (read-out: IC50 Syk); at JAK2 (read-out: IC50 JAK)) was below 50 nM in each case. Moreover, the inhibition at 1 µM in the test on RBL2H3 cells (setting [2]) worked out at 71%. For the same molecule, in the test with RBL2H3 cells (setting [3]), the EC50 was found to be 28 nM.

`CC(C)(C(=O)O)N1CCN(c2ccc(Nc3nc(N4CCC(CC#N)CC4)nc4cn[nH]c(=O)c34)cc2)CC1` [Example 213, 2-(4-(4-((2-(4-(cyanomethyl)piperidin-1-yl)-5-oxo-5,6-dihydropyrimido[4,5-d]pyridazin-4-yl)amino)phenyl)piperazin-1-yl)-2-methylpropanoic acid]: the results for the IC50 (in test [1] (read-out: IC50 Syk); at JAK2 (read-out: IC50 JAK)) were below 10 nM and below 50 nM, respectively. In the test on RBL2H3 cells (setting [2]), the inhibition at 1 µM was 78%. The 50% effective concentration (EC50) with RBL2H3 cells (setting [3]) is 33 nM.

Consider `CC(C)(O)C(=O)N1CCN(c2ccc(Nc3nc(N4CCCCCC4)nc4cn[nH]c(=O)c34)cc2)CC1` [Example 214, 2-(azepan-1-yl)-4-((4-(4-(2-hydroxy-2-methylpropanoyl)piperazin-1-yl)phenyl)amino)pyrimido[4,5-d]pyridazin-5(6H)-one], for which the IC50 (in test [1] (read-out: IC50 Syk); on JAK2 (read-out: IC50 JAK)) was below 10 nM in each case. Also, in the test with RBL2H3 cells (setting [2]), the inhibition at 1 µM was 78%. Besides, in the test with RBL2H3 cells (setting [3]), the half-maximal effective concentration (EC50) came out at 19 nM.

In the case of `N#CCC(=O)N1CCN(c2ccc(Nc3nc(N4CCCCCC4)nc4cn[nH]c(=O)c34)cc2)CC1` [Example 215, 3-(4-(4-((2-(azepan-1-yl)-5-oxo-5,6-dihydropyrimido[4,5-d]pyridazin-4-yl)amino)phenyl)piperazin-1-yl)-3-oxopropanenitrile], the half-inhibitory concentration (IC50) (in test [1] (read-out: IC50 Syk); on JAK2 (read-out: IC50 JAK)) was below 10 nM each time. Further, the inhibition at 1 µM with RBL2H3 cells (setting [2]) was 96%. In addition, the 50% effective concentration (EC50) in the test with RBL2H3 cells (setting [3]) amounted to 12 nM.

For the molecule `N#CCC1CCN(c2nc(Nc3ccc(N4CCC(CO)CC4)cc3)c3c(=O)[nH]ncc3n2)CC1` [Example 216, 2-(1-(4-((4-(4-(hydroxymethyl)piperidin-1-yl)phenyl)amino)-5-oxo-5,6-dihydropyrimido[4,5-d]pyridazin-2-yl)piperidin-4-yl)acetonitrile], the IC50 (in test [1] (read-out: IC50 Syk); on JAK2 (read-out: IC50 JAK)) was below 10 nM throughout. Moreover, the inhibition at 1 µM in the test on RBL2H3 cells (setting [2]) turned out to be 92%. In the test with RBL2H3 cells (setting [3]), the concentration for a half-maximal effect (EC50) turned out to be 21 nM.

Turning to `N#CCC1CCN(c2nc(Nc3ccc(OCCN4CCC(CO)CC4)cc3)c3c(=O)[nH]ncc3n2)CC1` [Example 218, 2-(1-(4-((4-(2-(4-(hydroxymethyl)piperidin-1-yl)ethoxy)phenyl)amino)-5-oxo-5,6-dihydropyrimido[4,5-d]pyridazin-2-yl)piperidin-4-yl) acetonitrile], the 50% inhibitory concentration (IC50) (in test [1] (read-out: IC50 Syk); on JAK2 (read-out: IC50 JAK)) was below 50 nM in each case. Also, the inhibition at 1 µM in the test on RBL2H3 cells (setting [2]) is 33%. Besides, the EC50 in the test on RBL2H3 cells (setting [3]) worked out at 123 nM.

With `O=C(OCOP(=O)(O)O)C1CC12CCN(c1ccc(Nc3nc(N4CCCCCC4)nc4cn[nH]c(=O)c34)cc1)CC2` (stereo not shown) [Example 219, (phosphonooxy)methyl 6-(4-((2-(azepan-1-yl)-5-oxo-5,6-dihydropyrimido[4,5-d]pyridazin-4-yl)amino)phenyl)-6-azaspiro[2.5]octane-1-carboxylate], the IC50 (in test [1]; against JAK2) was below 10 nM throughout. The inhibition at 1 µM in the test on RBL2H3 cells (Rattus norvegicus, RBL-2H3, read-out: Degranulation % inhibition at 1 μM) is 45%. Besides, in the test on RBL2H3 cells (Rattus norvegicus, RBL-2H3, read-out: Degranulation EC50 (nM)), the half-maximal effective concentration (EC50) was 96 nM.

`N#CCC1CCN(c2nc(Nc3ccc(N4CCNCC4)nc3)c3c(=O)[nH]ncc3n2)CC1` [Example 231, 2-(1-(5-oxo-4-((6-(piperazin-1-yl)pyridin-3-yl)amino)-5,6-dihydropyrimido[4,5-d]pyridazin-2-yl)piperidin-4-yl)acetonitrile]: the IC50 is below 50 nM in test [1] (read-out: IC50 Syk) and below 100 nM on JAK2 (read-out: IC50 JAK). In addition, in the test on RBL2H3 cells (setting [2]), the inhibition at 1 µM worked out at 0%. In addition, the concentration giving a half-maximal response (EC50) in the test on RBL2H3 cells (setting [3]) is 367 nM.

Consider `N=Cc1nc(N2CCCCCC2)nc(Nc2ccc(N3CCCC(CC(=O)O)C3)cc2)c1C(N)=O` (stereo not shown) [Example 232], for which the values for the IC50 (in test [1] (read-out: IC50 Syk); at JAK2 (read-out: IC50 JAK)) were below 50 nM and below 10 nM, respectively. Also, in the test with RBL2H3 cells (1 μM, Assay Protocol B (96 well format)), the “Degranulation % inhibition at 1 μM” value was 0%. Besides, the 50% effective concentration (EC50) in the test with RBL2H3 cells (Assay Protocol B (96 well format), read-out: Degranulation EC50) was found to be 619 nM.

As to `O=C(O)CC1CCCN(c2ccc(Nc3nc(N4CCCCCC4)nc4cn[nH]c(=O)c34)cc2)C1` (stereo not shown) [Example 233, 2-(1-(4-((2-(azepan-1-yl)-5-oxo-5,6-dihydropyrimido[4,5-d]pyridazin-4-yl)amino)phenyl)piperidin-3-yl)acetic acid], the IC50 (in test [1] (read-out: IC50 Syk); on JAK2 (read-out: IC50 JAK)) was below 10 nM in each case. Also, the inhibition at 1 µM in the test on RBL2H3 cells (setting [2]) is 20%. In addition, in the test on RBL2H3 cells (setting [3]), the EC50 worked out at 174 nM.

`O=c1[nH]ncc2nc(N3CCCCCC3)nc(Nc3ccc(N4CCC(Cc5nn[nH]n5)CC4)cc3)c12` [Example 244, 4-((4-(4-((2H-tetrazol-5-yl)methyl)piperidin-1-yl)phenyl)amino)-2-(azepan-1-yl)pyrimido[4,5-d]pyridazin-5(6H)-one]: the IC50 (in test [1] (read-out: IC50 Syk); on JAK2 (read-out: IC50 JAK)) was below 10 nM in each case. In addition, the inhibition at 1 µM in the test on RBL2H3 cells (setting [2]) was 23%. In addition, in the test with RBL2H3 cells (setting [3]), the 50% effective concentration (EC50) came out at 306 nM.

For `CN1CCN(c2ccc(Nc3nc(N4CCC(CC#N)CC4)nc4cn[nH]c(=O)c34)cc2)CC1` [Example 248, 2-(1-(4-((4-(4-methylpiperazin-1-yl)phenyl)amino)-5-oxo-5,6-dihydropyrimido[4,5-d]pyridazin-2-yl)piperidin-4-yl)acetonitrile], the IC50 (in test [1] (read-out: IC50 Syk); on JAK2 (read-out: IC50 JAK)) was below 10 nM in each case. Besides, in the test with RBL2H3 cells (setting [2]), the inhibition at 1 µM is 99%. Also, the EC50 with RBL2H3 cells (setting [3]) amounted to 19 nM.

On to `O=C(O)CN1CCC(Oc2ccc(Nc3nc(N4CCCCCC4)nc4cn[nH]c(=O)c34)cc2)CC1` [Example 254, 2-(4-(4-((2-(azepan-1-yl)-5-oxo-5,6-dihydropyrimido[4,5-d]pyridazin-4-yl)amino)phenoxy)piperidin-1-yl) acetic acid], for which the results for the IC50 (in test [1] (read-out: IC50 Syk); on JAK2 (read-out: IC50 JAK)) were below 10 nM and below 50 nM, respectively. Moreover, in the test on RBL2H3 cells (setting [2]), the inhibition at 1 µM is 24%. For the same molecule, in the test with RBL2H3 cells (setting [3]), the EC50 turned out to be 1200 nM.

In the case of `COCCN1CCN(c2ccc(Nc3nc(N4CCC(CC#N)CC4)nc4cn[nH]c(=O)c34)cc2)CC1` [Example 256, 2-(1-(4-((4-(4-(2-methoxyethyl)piperazin-1-yl)phenyl)amino)-5-oxo-5,6-dihydropyrimido[4,5-d]pyridazin-2-yl)piperidin-4-yl)acetonitrile], the values for the IC50 (in test [1] (read-out: IC50 Syk); at JAK2 (read-out: IC50 JAK)) were below 10 nM and below 50 nM, respectively. The inhibition at 1 µM with RBL2H3 cells (setting [2]) stood at 73%. Also, in the test on RBL2H3 cells (setting [3]), the EC50 was found to be 33 nM.

On to `N#CCC1CCN(c2nc(Nc3ccc(N4CCN(CCCO)CC4)cc3)c3c(=O)[nH]ncc3n2)CC1` [Example 261, 2-(1-(4-((4-(4-(3-hydroxypropyl)piperazin-1-yl)phenyl)amino)-5-oxo-5,6-dihydropyrimido[4,5-d]pyridazin-2-yl)piperidin-4-yl)acetonitrile], for which the IC50 was below 10 nM in test [1] (read-out: IC50 Syk) and below 50 nM at JAK2 (read-out: IC50 JAK). Moreover, the inhibition at 1 µM in the test with RBL2H3 cells (setting [2]) was 87%. Moreover, the EC50 in the test with RBL2H3 cells (setting [3]) turned out to be 39 nM.

For the molecule `N#CCC1CCN(c2nc(Nc3ccc(N4CCCN(CCO)CC4)cc3)c3c(=O)[nH]ncc3n2)CC1` [Example 264, 2-(1-(4-((4-(4-(2-hydroxyethyl)-1,4-diazepan-1-yl)phenyl)amino)-5-oxo-5,6-dihydropyrimido[4,5-d]pyridazin-2-yl)piperidin-4-yl)acetonitrile], the IC50 (in test [1] (read-out: IC50 Syk); at JAK2 (read-out: IC50 JAK)) was below 10 nM each time. For the same molecule, the inhibition at 1 µM with RBL2H3 cells (setting [2]) amounted to 75%. Moreover, the EC50 with RBL2H3 cells (setting [3]) is 54 nM.
